The results in this text go back to patent publication US6710080B2, “Substituted 2-dialkylaminoalkylbiphenyl derivatives” (Gruenenthal GmbH, priority 1999, dated 2004).

Where a name gives a salt, the structure may show the parent alone.

What is called ED50 is the midpoint of the dose-response relation. High values mean weaker potency, low ones greater potency.

This experiment concerns phenylquinone-induced writhing in mice. The experiment in a line: Writhing test in mice. The experiment is classed as in vivo. The following applies: Mus musculus, male NMRI mice; for ED50: iv, intravenously, regression analysis of dose-dependent decrease in writhing reactions; for inhibition at 10 mg/kg: 10 mg/kg intravenously 10 minutes before phenylquinone i.p., writhing counted 5-20 minutes after phenylquinone, read-out: % Inhibition of the writhing reaction with 10 mg/kg intravenously. The procedure: The analgesic activity was investigated on phenylquinone-induced writhing in mice (modified by I. C. Hendershot, J. Forsaith, J. Pharmacol. Exp. Ther. 125, 237-240 (1959)). Male NMRI mice weighing 25-30 g were used for this. Groups of 10 animals per dose of substance received 0.3 ml/mouse of a 0.02% aqueous solution of phenylquinone (phenylbenzoquinone, Sigma, Deisenhofen; preparation of the solution with addition of 5% ethanol and storage in a water bath at 45° C.) as an intraperitoneal administration 10 minutes after intravenous administration of the test substances. The animals were placed individually in observation cages. The number of pain-induced extension movements (so-called writhing reactions=straightening of the body with stretching out of the hind extremities) 5-20 minutes after the administration of phenylquinone was counted by means of a push-button counter. Animals which receive only physiological saline solution were also run as a control. All the substances were tested in the standard dosage of 10 mg/kg. The percentage inhibition (% inhibition) of the writhing reaction by a substance was calculated in accordance with the following equation: [formula]
For some substances, the ED50 values with 95% confidence limits of the writhing reaction were calculated from the dose-dependent decrease in the writhing reactions compared with phenylquinone control groups investigated in parallel by means of regression analysis (evaluation program of Martens EDV Service, Eckental Germany).

Turning to `CN(C)Cc1ccccc1-c1ccc(F)c(Cl)c1.Cl` [Example 9, (3′-Chloro-4′-fluorobiphenyl-2-ylmethyl)dimethylamine hydrochloride], the ED50 came out at 2.32 mg/kg and the inhibition at 10 mg/kg amounted to 89%.

On to `COc1ccc(-c2ccccc2CCN(C)C)cc1OC` [Example 33, [2-(3′,4′-Dimethoxybiphenyl-2-yl)ethyl]dimethylamine hydrochloride], for which the inhibition at 10 mg/kg came to 89%.

`CN(C)Cc1ccccc1-c1ccc(Cl)cc1Cl` [Example 28, (2′,4′-Dichlorobiphenyl-2-ylmethyl)dimethylamine hydrochloride]: the inhibition at 10 mg/kg turned out to be 90%.

As to `Cc1cc2c(-c3ccccc3CN(C)C)cccc2o1` [Example 11, Dimethyl-[2-(2-methylbenzofuran-4-yl)benzyl]amine hydrochloride], the inhibition at 10 mg/kg was 74%.

As to `CC(C)Oc1cccc(-c2ccccc2CN(C)C)c1` [Example 23, (3′-Isopropoxybiphenyl-2-ylmethyl)dimethylamine hydrochloride], the inhibition at 10 mg/kg turned out to be 97%.

Take `CN(C)Cc1ccccc1-c1ccccc1F.Cl` [Example 6, (2′-Fluorobiphenyl-2-ylmethyl)dimethylamine hydrochloride]: the median effective dose (ED50) was determined as 4.26 mg/kg and the inhibition at 10 mg/kg was determined as 88%.

As for `COc1cccc(-c2ccccc2CN(C)C)c1` [Example 1, (3′-Methoxybiphenyl-2-ylmethyl)dimethylamine hydrochloride], the inhibition at 10 mg/kg was 53%.

`CN(C)Cc1ccccc1-c1cc(F)ccc1F` [Example 30, (2′,5′-Difluorobiphenyl-2-ylmethyl)dimethylamine hydrochloride]: the inhibition at 10 mg/kg was determined as 89%.

In the case of `CN(C)Cc1ccccc1-c1ccccc1C=O.Cl` [Example 12, 2′-Dimethylaminomethylbiphenyl-2-carbaldehyde hydrochloride], the ED50 turned out to be 1.74 mg/kg and the inhibition at 10 mg/kg worked out at 89%.

As to `CN(C)CCc1ccccc1-c1ccc(Cl)c(O)c1` [Example 36, 4-Chloro-2′-(2-dimethylaminoethyl)biphenyl-3-ol hydrochloride], the inhibition at 10 mg/kg stood at 93%.

Turning to `CN(C)Cc1ccccc1-c1ccc(F)c(F)c1` [Example 19, (3′,4′-Difluorobiphenyl-2-ylmethyl)dimethylamine hydrochloride], the inhibition at 10 mg/kg worked out at 86%.

Regarding `CN(C)Cc1ccccc1-c1ccc(F)cc1.Cl` [Example 8, (4′-Fluorobiphenyl-2-ylmethyl)dimethylamine hydrochloride], the ED50 was determined as 7.15 mg/kg and the inhibition at 10 mg/kg is 67%.

For `CN(C)Cc1ccccc1-c1cccc(O)c1.Cl` [Example 3, 2′-Dimethylaminomethylbiphenyl-3-ol hydrochloride], the ED50 came out at 0.24 mg/kg and the inhibition at 10 mg/kg is 100%.

Regarding `CN(C)Cc1ccccc1-c1cccc(C=O)c1.Cl` [Example 14, 2′-Dimethylaminomethylbiphenyl-3-carbaldehyde hydrochloride], it took a dose of 2.28 mg/kg to reach the 50% effect level (ED50) and the inhibition at 10 mg/kg amounted to 100%.

Consider `CN(C)Cc1ccccc1-c1ccc(S(C)(=O)=O)cc1` [Example 27, (4′-Methanesulfonylbiphenyl-2-ylmethyl)dimethylamine hydrochloride], for which the inhibition at 10 mg/kg is 89%.

As to `CC(=O)c1cccc(-c2ccccc2CCN(C)C)c1` [Example 32, 1-[2′-(2-Dimethylaminoethyl)biphenyl-3-yl]ethanone hydrochloride], the inhibition at 10 mg/kg stood at 98%.

On to `CN(C)Cc1ccccc1-c1cccc([N+](=O)[O-])c1` [Example 37, Dimethyl-(3′-nitrobiphenyl-2-ylmethyl)amine hydrochloride], for which the inhibition at 10 mg/kg turned out to be 60%.

Take `CN(C)Cc1ccccc1-c1ccc([N+](=O)[O-])c(C(F)(F)F)c1` [Example 18, Dimethyl-(4′-nitro-3′-trifluoromethylbiphenyl-2-ylmethyl)amine hydrochloride]: the inhibition at 10 mg/kg came out at 83%.
